The text below walks through data of patent publication US5385842A, “Anthraquinones as inhibitors of sulfide production from sulfate-reducing bacteria” (E. I. Du Pont de Nemours and Company, priority 1993, dated 1995).

Each structure is given as a SMILES string.

In experiment [1] the test system is Desulfovibrio desulfuricans G100A. Description: microbe, parasite or virus in culture. In kind it is cell-based.
The subject of experiment [2] is B. aureus, B. subtilis, B. stearothermophilus and S. aureus. As to conditions: background art; cited from earlier work.
For a further experiment, the system named is anaerobic bacteria. As to conditions: background art; cited from earlier work.
The next experiment has as its system bacteria. The conditions noted are these: background art; cited from earlier work.
Experiment [3] has as its system sulfate-reducing bacteria. The conditions noted are these: background art; cited from earlier work.
For experiment [4], the system named is E. coli, Pseudomonas, Salmonella or Sarcina. The conditions noted are these: background art; cited from earlier work.
Experiment [5] concerns Bacillus, Nocardia, Streptomyces, Proteus. As to conditions: background art; cited from earlier work.
The mark [6] stands for this setting: Desulfovibrio desulfuricans, G100A, read-out: % Inhib. (inhibition of sulfide production).

With `Nc1ccc(O)c2c1C(=O)c1ccccc1C2=O` [1-Amino-4-hydroxyanthraquinone], the inhibition at 30 ppm in experiment [1] (setting [6]) stood at 54.3%. Also, the “antibacterial activity (in words)” value in experiment [2] is “either inactive against these strains or required concentrations in excess of 100 to 1000 ppm for inhibition”.
`Cc1ncc([N+](=O)[O-])n1CCO` [metronidazole]: the “effectiveness (in words)” value in the experiment with anaerobic bacteria is “generally effective against anaerobic bacteria”.
For `O=C(O)c1cc(O)c2c(c1)C(=O)c1cccc(O)c1C2=O` [Rhein, 9,10-Dihydro-4,5-dihydroxy-9,10-dioxo-2-anthracenecarboxylic acid], the inhibition at 30 ppm in experiment [1] (setting [6]) was found to be 48.6%. Moreover, the “antibacterial activity (in words)” value in the experiment on bacteria was “active component of leaf extracts of Cassia sp”.
For the molecule `O=C1c2ccccc2C(=O)c2c1ccc(O)c2O` [1,2-Dihydroxyanthraquinone], in experiment [1] (setting [6]), the inhibition at 10 ppm was determined as 68.9%. For the same molecule, the “antibacterial activity (in words)” value in experiment [2] is “either inactive against these strains or required concentrations in excess of 100 to 1000 ppm for inhibition”.
As for `[H]/N=C(\N/C(=N/[H])NCCCCCCNC(=N)NC(=N)Nc1ccc(Cl)cc1)Nc1ccc(Cl)cc1` [Chlorhexidine, reference compound], in experiment [3], the “effective / use concentration against sulfate-reducers” value is given as 1-10 ppm. Further, the “inhibition of sulfide production (in words)” value in experiment [1] is reported as “inhibits sulfide production”. Besides, the “% inhibition of sulfide formation” value in experiment [1] (Table III, Example 3) is given as 88.7%.
For the molecule `O=C1c2cc(O)cc(O)c2C(=O)c2c(O)ccc(O)c21` [1,4,6,8-tetrahydroxyanthraquinone], the “antibacterial activity (in words)” value in experiment [4] is “did not affect any species of E. coli, Pseudomonas, Salmonella or Sarcina”; in experiment [5] it was “inhibited 4 species of Bacillus, one strain of Nocardia, one strain (out of four tested) of Streptomyces and one of the Gram negative Proteus”.
